Measured values as given in patent US20240270821A1, “GIP/GLP1/GCG TRI-RECEPTOR AGONISTS AND USES THEREOF” (priority 2023, published 2024).
Starred links: 1 amine or outer side, 2 acyl side, 3 side chain; linkers in the order of their positions; H or OH if unused. Non-standard residues stand in square brackets, D forms with d. Groups on a side chain read outwards from the residue. *: point of attachment. C18 diacid = O=C(O)CCCCCCCCCCCCCCCCC(=O)*; γGlu = O=C(O)[C@H](CCC(=O)[*:2])N[*:1]; 4Pal = N[C@@H](Cc1ccncc1)C(=O)O; αMeL = CC(C)C[C@](C)(N)C(=O)O; Orn = NCCC[C@H](N)C(=O)O; AEEA = NCCOCCOCC(=O)O; Aib = CC(C)(N)C(=O)O

Legend:
[1] = target: human GcgR (Homo sapiens, UniProt P47871); experiment: Functional cAMP activity in the presence of 1% HSA; type: cell-based; conditions: read-out: cAMP Rel EC50, hGcgR
Chain of human GcgR (P47871 26-477): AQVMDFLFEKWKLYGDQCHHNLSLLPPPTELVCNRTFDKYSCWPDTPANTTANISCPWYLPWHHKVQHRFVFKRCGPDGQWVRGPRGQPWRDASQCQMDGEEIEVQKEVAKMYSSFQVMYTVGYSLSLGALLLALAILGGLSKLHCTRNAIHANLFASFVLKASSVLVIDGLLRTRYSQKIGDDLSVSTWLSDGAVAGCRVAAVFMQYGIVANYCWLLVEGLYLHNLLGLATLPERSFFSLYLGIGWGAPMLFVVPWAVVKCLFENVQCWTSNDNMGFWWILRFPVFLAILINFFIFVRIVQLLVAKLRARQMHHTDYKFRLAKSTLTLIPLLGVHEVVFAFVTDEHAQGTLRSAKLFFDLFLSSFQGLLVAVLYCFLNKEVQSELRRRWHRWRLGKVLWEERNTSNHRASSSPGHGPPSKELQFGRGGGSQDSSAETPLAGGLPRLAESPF

[2] = target: hGcgR (Homo sapiens, UniProt P47871); experiment: Functional cAMP activation in the presence of 0.1% casein (no HSA); type: cell-based; conditions: in the presence of 0.1% casein (no HSA); geometric mean; read-out: Relative cAMP EC50, hGcgR;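 further: intracellular cAMP rise after 30 min at 37 °C, read by HTRF against a cAMP standard curve, scaled from buffer only (0%) to maximal control ligand response (100%)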
Chain of hGcgR (P47871 26-477): as above

[3] = target: T1, hGIPR (Homo sapiens, UniProt P48546); experiment: as above; type: cell-based; conditions: in the presence of 0.1% casein (no HSA); geometric mean; read-out: Relative cAMP EC50, hGIPR;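 further: intracellular cAMP rise after 30 min at 37 °C read by HTRF against a standard curve, scaled between buffer alone (0%) and top control ligand concentration (100%), four-parameter fit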
T1 sequence (P48546 22-466): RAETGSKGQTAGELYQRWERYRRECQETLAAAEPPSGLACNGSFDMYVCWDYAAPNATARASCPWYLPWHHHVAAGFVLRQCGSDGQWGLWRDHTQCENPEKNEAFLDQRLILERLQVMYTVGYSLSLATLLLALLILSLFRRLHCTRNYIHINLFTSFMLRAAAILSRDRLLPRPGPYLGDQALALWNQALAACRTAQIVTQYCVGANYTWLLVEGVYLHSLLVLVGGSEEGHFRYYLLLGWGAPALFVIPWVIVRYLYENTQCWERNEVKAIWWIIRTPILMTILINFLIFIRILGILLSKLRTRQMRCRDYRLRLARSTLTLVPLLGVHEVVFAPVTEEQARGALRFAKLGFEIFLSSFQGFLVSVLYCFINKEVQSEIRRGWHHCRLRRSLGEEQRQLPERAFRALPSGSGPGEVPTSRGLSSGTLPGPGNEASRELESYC

[4] = target: T1, hGIPR; experiment: Functional cAMP activity in the presence of 1% HSA; type: cell-based; conditions: read-out: cAMP Rel EC50, hGIPR
[5] = target: human GLP1-R (Homo sapiens, UniProt P43220); experiment: GLP1-R internalization assay in HEK293 cells; type: cell-based; conditions: for EC50: HEK293 cells expressing SNAP-GLP-1R, read-out: GLP1R Internalization EC50; for Internalization % TOP: normalized to maximum concentration of GLP-1 (100%)
Chain of human GLP1-R (P43220 24-463): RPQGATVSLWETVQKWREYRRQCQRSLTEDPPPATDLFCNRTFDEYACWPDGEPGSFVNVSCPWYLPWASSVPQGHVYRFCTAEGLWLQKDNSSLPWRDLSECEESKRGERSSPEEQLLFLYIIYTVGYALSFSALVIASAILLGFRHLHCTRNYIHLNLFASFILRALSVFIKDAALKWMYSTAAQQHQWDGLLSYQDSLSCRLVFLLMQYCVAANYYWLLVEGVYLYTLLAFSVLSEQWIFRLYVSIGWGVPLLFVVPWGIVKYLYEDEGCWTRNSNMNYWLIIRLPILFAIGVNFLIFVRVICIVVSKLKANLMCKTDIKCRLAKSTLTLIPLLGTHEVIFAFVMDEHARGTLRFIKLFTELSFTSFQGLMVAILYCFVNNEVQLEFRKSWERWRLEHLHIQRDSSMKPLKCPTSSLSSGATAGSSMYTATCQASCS

[6] = target: T2, hGLP-1R (Homo sapiens, UniProt P43220); experiment: Functional cAMP activity in the presence of 1% HSA; type: cell-based; conditions: read-out: cAMP Rel EC50, hGLP-1R
T2 sequence (P43220 24-463): as above

[7] = system: Intestinal organoid from Göttingen minipig jejunum tissue, 2D monolayer; experiment: Cell based in vitro permeability (Papp) assay; type: in vitro ADME
Experimental: Intestinal organoid from Göttingen minipig jejunum tissue and its 2D monolayer are generated using the protocol previously described ([…]-Thiele, […].; Wells, J. M., Optimized procedures for generating an enhanced, near physiological 2D culture system from porcine intestinal organoids. […] After 7 days of culture, organoids are dissociated into single cells by TrypLE (GIbco), and the single cell suspension is added in 24-well transparent transwell inserts (0.3 cm^2, Falcon, BD). […] Samples from the basal compartment are collected at 20 min in the presence of C10. Peptide concentrations in the apical and basal compartments are measured by LC/MS, and the apparent permeability coefficient (Papp) is calculated as previously described (Twarog, C.; Liu, K.; O'Brien, P. J.; Dawson, […] head-to-head Caco-2 assay comparison of the mechanisms of action of the intestinal permeation enhancers: SNAC and sodium caprate (C10).

[8] = target: T2, hGLP-1R; experiment: Functional cAMP activation in the presence of 0.1% casein (no HSA); type: cell-based; conditions: in the presence of 0.1% casein (no HSA); geometric mean; read-out: Relative cAMP EC50, hGLP-1R;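 on Relative cAMP EC50, hGIPR: intracellular cAMP rise after 30 min at 37 °C read by HTRF against a standard curve, scaled between buffer alone (0%) and top control ligand concentration (100%), four-parameter fit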;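 on Relative cAMP EC50, hGLP-1R: intracellular cAMP rise after 30 min at 37 °C read by HTRF, normalized between buffer only (0%) and maximal control ligand (100%), four-parameter variable-slope fit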

Row | Molecule | EC50 [1] [nM] | EC50 [2] [nM] | EC50 [3] [nM] | EC50 [4] [nM] | EC50 [5] [nM] | Internalization % TOP [5] [%] | EC50 [6] [nM] | Relative Papp (Compared to internal standard) [7] | EC50 [8] [nM]
1 | CC[C@H](C)[C@H](NC(=O)[C@H](Cc1ccccc1)NC(=O)[C@H](C)NC(=O)C(C)(C)NC(=O)[C@H](CCC(N)=O)NC(=O)[C@H](C)NC(=O)[C@H](CCCCNC(=O)CC[C@H](NC(=O)CC[C@H](NC(=O)CCCCCCCCCCCCCCCCC(=O)O)C(=O)O)C(=O)O)NC(=O)[C@H](CCCCN)NC(=O)[C@H](CC(=O)O)NC(=O)[C@H](CC(C)C)NC(=O)[C@](C)(CC(C)C)NC(=O)[C@H](CCCN)NC(=O)[C@H](CO)NC(=O)[C@H](Cc1ccccc1)NC(=O)[C@H](CC(=O)O)NC(=O)[C@H](CO)NC(=O)[C@@H](NC(=O)[C@H](Cc1ccccc1)NC(=O)[C@@H](NC(=O)CNC(=O)[C@H](CCC(N)=O)NC(=O)C(C)(C)NC(=O)[C@@H](N)Cc1ccc(O)cc1)[C@@H](C)O)[C@@H](C)O)C(=O)N[C@@H](CCC(=O)O)C(=O)N[C@@H](Cc1ccc(O)cc1)C(=O)N[C@@H](CC(C)C)C(=O)N[C@@H](CC(C)C)C(=O)N[C@@H](CCC(=O)O)C(=O)N[C@H](C)C(=O)NCC(=O)N1CCC[C@H]1C(=O)N[C@@H](CO)C(=O)N[C@@H](CO)C(=O)NCC(=O)N[C@@H](C)C(=O)N1CCC[C@H]1C(=O)N1CCC[C@H]1C(=O)N1CCC[C@H]1C(=O)N[C@@H](CO)C(=O)NCC(=O)N[C@H](C(N)=O)[C@@H](C)O [Example 204] | 572 | 6.92 | 0.181 | 16.7 | 66.4 | 45.5 | 306 | 0.16 | 2.34
2 | CC[C@H](C)[C@H](NC(=O)[C@H](Cc1ccccc1)NC(=O)[C@H](C)NC(=O)C(C)(C)NC(=O)[C@H](CCC(N)=O)NC(=O)[C@H](C)NC(=O)[C@H](CCCCNC(=O)COCCOCCNC(=O)CC[C@H](NC(=O)CCCCCCCCCCCCCCCCC(=O)O)C(=O)O)NC(=O)[C@H](CCCCN)NC(=O)[C@H](CC(=O)O)NC(=O)[C@H](CC(C)C)NC(=O)[C@](C)(CC(C)C)NC(=O)[C@H](CCCN)NC(=O)[C@H](CO)NC(=O)[C@H](Cc1ccccc1)NC(=O)[C@H](CC(=O)O)NC(=O)[C@H](CO)NC(=O)[C@@H](NC(=O)[C@H](Cc1ccccc1)NC(=O)[C@@H](NC(=O)CNC(=O)[C@H](CCC(N)=O)NC(=O)C(C)(C)NC(=O)[C@@H](N)Cc1ccc(O)cc1)[C@@H](C)O)[C@@H](C)O)C(=O)N[C@@H](CCC(=O)O)C(=O)N[C@@H](Cc1ccc(O)cc1)C(=O)N[C@@H](CC(C)C)C(=O)N[C@@H](CC(C)C)C(=O)N[C@@H](CCC(=O)O)C(=O)N[C@H](C)C(=O)NCC(=O)N1CCC[C@H]1C(=O)N[C@@H](CO)C(=O)N[C@@H](CO)C(=O)NCC(=O)N[C@@H](C)C(=O)N1CCC[C@H]1C(=O)N1CCC[C@H]1C(=O)N1CCC[C@H]1C(=O)N[C@@H](CO)C(=O)NCC(=O)N[C@H](C(N)=O)[C@@H](C)O [Example 210] | 501 | 2.81 | 0.153 | 23.5 | 80.2 | 49.2 | 264 | 0.06 | 1.44
3 | H-Y[Aib]QGTFTSDFS[Orn][αMeL]LDKK([AEEA-AEEA-γGlu-C18 diacid])AQ[Aib]AFIEWLLEGGHSSGAPPPSGE-NH2 [Example 169] | 439 | 11.7 | 0.209 | 21.5 | 178 | 49.4 | 216 | 0.12 | 6.17
4 | H-Y[Aib]QGTFTSDFS[Orn][αMeL]LDKK([AEEA-AEEA-γGlu-C18 diacid])AQ[Aib]AFIEYLLE[Aib]GHSSGAPPPSGE-NH2 [Example 186] | 1280 | 4.67 | 0.107 | 18 | 124 | 41.1 | 690 | 0.10 | 5.26
5 | H-Y[Aib]QGTFTSDFS[Orn][αMeL]LDKK([AEEA-AEEA-γGlu-C18 diacid])AQ[Aib]AFIEYLLE[Aib]GPSSGAPPPSGT-NH2 [Example 165] | 1250 | 4.47 | 0.0956 | 18.6 | 57.5 | 44.5 | 808 | 0.09 | 6.52
6 | H-Y[Aib]QGTFTSDFS[Orn][αMeL]LDKK([AEEA-AEEA-γGlu-C18 diacid])AQ[Aib]AFIEYLLE[Aib]G[4Pal]SSGAPPPSGE-NH2 [Example 189] | 853 | 6.28 | 0.0695 | 22.2 | 103 | 45.8 | 423 | 0.17 | 4.46
7 | H-Y[Aib]QGTFTSDFS[Orn][αMeL]LDKK([AEEA-γGlu-C18 diacid])AQ[Aib]AFIEWLLEGGPSSGAPPPTGS-NH2 [Example 250] | 201 | 3.81 | 0.154 | 11.7 | 97 | 45 | 194 | 0.11 | 2.08
8 | H-Y[Aib]QGTFTSDFS[Orn][αMeL]LDKK([AEEA-γGlu-C18 diacid])AQ[Aib]AFIEWLLEGGSSSGAPPPSGT-NH2 [Example 174] | 307 | 4.24 | 0.198 | 20.8 | 123 | 52.8 | 208 | 0.12 | 2.33
9 | H-Y[Aib]QGTFTSDFS[Orn][αMeL]LDKK([AEEA-γGlu-C18 diacid])AQ[Aib]AFIEYLLE[Aib]GHSSGAPPPSGS-NH2 [Example 241] | 543 | 2.71 | 0.0748 | 9.36 | 64.4 | 37.6 | 264 | 0.10 | 2.3
10 | H-Y[Aib]QGTFTSDFS[Orn][αMeL]LDKK([AEEA-γGlu-C18 diacid])AQ[Aib]AFIEYLLE[Aib]GPSS[Aib]APPPSGS-NH2 [Example 238] | 334 | 2.78 | 0.0909 | 8.78 | 32.1 | 38.2 | 262 | 0.06 | 2.71
11 | H-Y[Aib]QGTFTSDFS[Orn][αMeL]LDKK([AEEA-γGlu-C18 diacid])AQ[Aib]AFIEYLLE[Aib]G[4Pal]SSGAPPPSGS-NH2 [Example 242] | 484 | 3.5 | 0.0916 | 5.94 | 56 | 38.2 | 242 | 0.07 | 3.42
12 | H-Y[Aib]QGTFTSDFS[Orn][αMeL]LDKK([AEEA-γGlu-C18 diacid])AQ[Aib]AFIEYLLE[dA]GPSSGAPPPSGS-NH2 [Example 209] | 433 | 3.08 | 0.129 | 23.3 | 83.1 | 41.2 | 276 | 0.08 | 1.78
13 | H-Y[Aib]QGTFTSDFS[Orn][αMeL]LDKK([AEEA-γGlu-C18 diacid])AQ[Aib]AFIEYLLE[dA]GPSSGAPPPSG[4Pal]-NH2 [Example 211] | 370 | 2.05 | 0.116 | 20.6 | 57.4 | 26.9 | 234 | 0.06 | 1.23
14 | H-Y[Aib]QGTFTSDFS[Orn][αMeL]LDKK([AEEA-γGlu-C18 diacid])AQ[Aib]AFIEYLLE[dA]GPSS[Aib]APPPSGT-NH2 [Example 214] | 302 | 2.49 | 0.103 | 15.1 | 50.1 | 41.7 | 186 | 0.07 | 1.22
